Assay results reported in ChEMBL document CHEMBL1201862, “PubChem BioAssay data set” (2004).
Activity calls are given as the source filed them.

Key:
[1] = target: T1, Corticotropin-releasing factor receptor 2/Corticotropin-releasing factor-binding protein (Homo sapiens, UniProt P24387+Q13324); assay: activators of CRF receptor 2 with binding protein – uHTS hits, confirmation (AID 602473); format: functional; conditions: read-out: EC50_Mean
T1 sequence (Q13324 whole entry): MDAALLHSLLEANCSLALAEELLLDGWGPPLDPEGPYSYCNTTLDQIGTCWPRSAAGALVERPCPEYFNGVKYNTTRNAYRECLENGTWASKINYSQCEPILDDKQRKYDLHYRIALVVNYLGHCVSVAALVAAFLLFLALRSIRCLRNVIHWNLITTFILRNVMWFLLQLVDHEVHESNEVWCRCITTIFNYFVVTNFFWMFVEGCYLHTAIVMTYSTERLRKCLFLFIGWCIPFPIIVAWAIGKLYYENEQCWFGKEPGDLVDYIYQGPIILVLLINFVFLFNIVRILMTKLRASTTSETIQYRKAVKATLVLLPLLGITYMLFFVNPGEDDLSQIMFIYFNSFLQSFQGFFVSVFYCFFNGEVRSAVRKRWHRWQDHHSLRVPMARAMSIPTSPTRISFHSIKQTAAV
T1 sequence (P24387 whole entry): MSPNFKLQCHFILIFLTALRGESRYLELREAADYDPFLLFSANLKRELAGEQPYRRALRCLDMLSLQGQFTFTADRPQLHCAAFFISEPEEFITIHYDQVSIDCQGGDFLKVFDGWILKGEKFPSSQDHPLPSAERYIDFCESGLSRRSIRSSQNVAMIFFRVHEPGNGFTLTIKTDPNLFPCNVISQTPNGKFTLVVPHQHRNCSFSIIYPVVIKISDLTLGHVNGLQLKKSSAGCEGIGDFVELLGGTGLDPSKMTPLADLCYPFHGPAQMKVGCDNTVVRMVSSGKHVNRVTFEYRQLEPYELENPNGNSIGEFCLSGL

[2] = target: T2, Estrogen receptor (Homo sapiens, UniProt P03372);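 also: potency for inhibiting coactivator peptide recruitment to the receptor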
T2 sequence (P03372 whole entry): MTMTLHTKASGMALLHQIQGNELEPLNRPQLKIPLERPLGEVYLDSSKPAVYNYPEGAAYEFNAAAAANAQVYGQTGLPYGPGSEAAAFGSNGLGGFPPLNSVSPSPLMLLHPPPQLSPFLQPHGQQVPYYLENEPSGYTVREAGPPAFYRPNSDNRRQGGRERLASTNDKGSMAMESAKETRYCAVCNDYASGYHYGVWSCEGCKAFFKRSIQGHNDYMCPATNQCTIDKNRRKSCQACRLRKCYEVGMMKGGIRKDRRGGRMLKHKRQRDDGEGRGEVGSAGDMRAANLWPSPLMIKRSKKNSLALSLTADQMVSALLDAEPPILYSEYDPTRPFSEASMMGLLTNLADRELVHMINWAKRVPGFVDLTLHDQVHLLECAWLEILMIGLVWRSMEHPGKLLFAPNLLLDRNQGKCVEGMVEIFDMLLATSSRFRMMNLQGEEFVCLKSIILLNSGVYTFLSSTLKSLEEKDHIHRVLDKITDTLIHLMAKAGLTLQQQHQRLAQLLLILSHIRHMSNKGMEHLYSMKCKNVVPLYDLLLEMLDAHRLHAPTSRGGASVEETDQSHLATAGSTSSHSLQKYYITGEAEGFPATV

[3] = target: Procathepsin L (Homo sapiens, UniProt P07711); assay: CTSL1 protease inhibition – biochemical, QFRET, 1536-well, counter-screen for M1/M17 aminopeptidase inhibitor project, dose response (AID 2214)
Procathepsin L, sequence (P07711 whole entry): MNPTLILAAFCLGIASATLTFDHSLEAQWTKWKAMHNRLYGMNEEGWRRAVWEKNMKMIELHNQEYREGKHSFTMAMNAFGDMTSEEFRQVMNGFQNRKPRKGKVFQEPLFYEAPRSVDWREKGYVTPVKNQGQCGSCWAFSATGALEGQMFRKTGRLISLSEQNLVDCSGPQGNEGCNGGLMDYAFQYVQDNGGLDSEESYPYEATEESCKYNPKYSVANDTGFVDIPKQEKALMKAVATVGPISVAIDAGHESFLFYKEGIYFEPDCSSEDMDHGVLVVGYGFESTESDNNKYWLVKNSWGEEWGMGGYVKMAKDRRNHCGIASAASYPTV

[4] = target: T3, Leucine aminopeptidase (Plasmodium falciparum 3D7, UniProt Q8IL11); assay: P. falciparum M17LAP inhibitors, primary screen, biochemical, fluorogenic H-Leu-NHMec substrate, 1536-well (AID 1619); format: functional
T3 sequence (Q8IL11 whole entry): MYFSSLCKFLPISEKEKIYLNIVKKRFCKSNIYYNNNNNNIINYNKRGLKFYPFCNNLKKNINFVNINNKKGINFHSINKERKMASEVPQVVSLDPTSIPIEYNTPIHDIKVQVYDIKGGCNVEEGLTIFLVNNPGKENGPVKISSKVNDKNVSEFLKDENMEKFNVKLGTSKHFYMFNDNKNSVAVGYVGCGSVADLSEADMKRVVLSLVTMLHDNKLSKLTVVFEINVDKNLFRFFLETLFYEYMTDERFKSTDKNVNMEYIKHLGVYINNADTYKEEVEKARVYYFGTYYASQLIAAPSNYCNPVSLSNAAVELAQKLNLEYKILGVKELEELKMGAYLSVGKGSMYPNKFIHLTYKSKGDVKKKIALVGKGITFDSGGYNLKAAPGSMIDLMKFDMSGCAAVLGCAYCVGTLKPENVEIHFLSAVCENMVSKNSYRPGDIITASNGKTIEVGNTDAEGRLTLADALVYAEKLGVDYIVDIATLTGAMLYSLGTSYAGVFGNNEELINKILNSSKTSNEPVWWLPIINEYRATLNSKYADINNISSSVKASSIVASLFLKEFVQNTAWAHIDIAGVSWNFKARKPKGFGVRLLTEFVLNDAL

[5] = target: T4, Aspartyl aminopeptidase (Plasmodium falciparum 3D7, UniProt Q8I2J3); assay: Counterscreen for inhibitors of M1 and M17 aminopeptidases: QFRET-based biochemical high throughput dose response assay for inhibitors of the Plasmodium falciparum M18 Aspartyl Aminopeptidase (PFM18AAP). [Related PubChem assays: 1619 (Screening assay (M17LAP inhibitors).), 1445 (Screening assay (M1AAP inhibitors).)]
T4 sequence (Q8I2J3 whole entry): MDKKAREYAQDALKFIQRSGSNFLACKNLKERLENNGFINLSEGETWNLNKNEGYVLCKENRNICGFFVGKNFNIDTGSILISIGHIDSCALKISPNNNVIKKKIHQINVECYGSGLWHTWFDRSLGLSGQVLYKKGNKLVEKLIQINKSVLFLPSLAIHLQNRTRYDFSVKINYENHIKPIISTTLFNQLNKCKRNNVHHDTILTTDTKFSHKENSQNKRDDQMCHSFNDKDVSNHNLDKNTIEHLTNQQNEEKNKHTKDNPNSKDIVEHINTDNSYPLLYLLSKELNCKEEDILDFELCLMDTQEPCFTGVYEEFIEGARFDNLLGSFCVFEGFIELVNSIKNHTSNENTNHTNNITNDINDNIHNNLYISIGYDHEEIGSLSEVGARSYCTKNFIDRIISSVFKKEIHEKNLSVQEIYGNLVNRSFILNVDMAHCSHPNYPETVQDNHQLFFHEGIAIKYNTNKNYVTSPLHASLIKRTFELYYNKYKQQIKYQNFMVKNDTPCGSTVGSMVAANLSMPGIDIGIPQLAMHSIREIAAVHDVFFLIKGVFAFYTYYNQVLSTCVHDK

[6] = A cytotoxicity screen of small molecule inhibitors of the PhoP region in Salmonella typhi identified in the primary screen. [Related pubchem assays: 1850, 1864, 1985 ]; format: functional
[7] = target: T5, Aryl hydrocarbon receptor (Homo sapiens, UniProt P35869); assay: Luminescence-based cell-based high throughput dose response assay for activators of the Aryl Hydrocarbon Receptor (AHR). [Related pubchem assays: 2796 (Primary screen (AHR activators in singlicate)), 2845 (Confirmation screen (AHR activators in triplicate)), 434939 (Counterscreen (PXR activators in triplicate)), 2804 (Summary (AHR activators))]; format: ADME
T5 sequence (P35869 whole entry): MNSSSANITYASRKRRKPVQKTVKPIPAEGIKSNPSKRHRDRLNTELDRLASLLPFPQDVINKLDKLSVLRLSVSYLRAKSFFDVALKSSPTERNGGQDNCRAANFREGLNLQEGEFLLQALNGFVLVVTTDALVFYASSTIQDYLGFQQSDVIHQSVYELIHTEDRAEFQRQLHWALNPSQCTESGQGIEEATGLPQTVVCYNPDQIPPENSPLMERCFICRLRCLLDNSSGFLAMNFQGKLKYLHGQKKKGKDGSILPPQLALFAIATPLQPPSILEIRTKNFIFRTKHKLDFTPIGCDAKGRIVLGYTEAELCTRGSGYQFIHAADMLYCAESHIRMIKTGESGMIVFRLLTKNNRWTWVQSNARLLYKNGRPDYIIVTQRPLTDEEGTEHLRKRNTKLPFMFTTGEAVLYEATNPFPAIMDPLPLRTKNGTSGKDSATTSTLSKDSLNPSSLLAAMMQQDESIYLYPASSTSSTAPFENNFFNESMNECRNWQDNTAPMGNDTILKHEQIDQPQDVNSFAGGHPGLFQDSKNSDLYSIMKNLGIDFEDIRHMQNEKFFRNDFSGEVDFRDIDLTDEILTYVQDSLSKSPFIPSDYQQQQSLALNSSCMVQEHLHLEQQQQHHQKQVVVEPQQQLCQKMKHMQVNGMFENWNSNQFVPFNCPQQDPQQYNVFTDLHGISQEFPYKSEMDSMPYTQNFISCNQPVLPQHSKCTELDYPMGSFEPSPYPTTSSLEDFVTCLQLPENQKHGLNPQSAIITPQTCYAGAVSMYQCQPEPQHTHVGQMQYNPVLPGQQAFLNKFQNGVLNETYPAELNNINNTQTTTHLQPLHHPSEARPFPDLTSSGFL

[8] = viability of uninfected HEp-2 cells – cell-based, HTS, cytotoxicity control for RSV inhibitor project, dose response (AID 2410); format: functional; conditions: human respiratory syncytial virus
[9] = target: T6, Estrogen receptor beta (Homo sapiens, UniProt Q92731);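 also: recombinant ER-beta bound to coactivator SRC1 peptide in presence of estradiol agonist; inhibitors block coactivator peptide binding and lower the FRET signal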
T6 sequence (Q92731 whole entry): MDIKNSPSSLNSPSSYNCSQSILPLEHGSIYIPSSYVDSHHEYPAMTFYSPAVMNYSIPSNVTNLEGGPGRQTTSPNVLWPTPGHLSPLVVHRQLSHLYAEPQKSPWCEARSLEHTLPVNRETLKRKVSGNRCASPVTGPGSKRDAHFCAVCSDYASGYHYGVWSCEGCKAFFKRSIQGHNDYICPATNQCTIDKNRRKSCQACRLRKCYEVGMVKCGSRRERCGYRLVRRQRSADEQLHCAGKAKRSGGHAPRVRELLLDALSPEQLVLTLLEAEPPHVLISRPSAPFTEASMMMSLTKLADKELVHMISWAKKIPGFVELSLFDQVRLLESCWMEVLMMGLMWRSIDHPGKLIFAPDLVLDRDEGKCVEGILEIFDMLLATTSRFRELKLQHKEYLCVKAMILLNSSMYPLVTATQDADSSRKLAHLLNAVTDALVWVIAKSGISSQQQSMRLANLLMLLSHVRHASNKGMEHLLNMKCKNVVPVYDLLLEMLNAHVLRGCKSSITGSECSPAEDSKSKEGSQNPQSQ

[10] = Trypanosoma cruzi growth suppression in host cells – NIH3T3 host cells, beta-gal luminescence, confirmation (AID 2044); format: functional, cell-based;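 also: intracellular parasites grown in NIH/3T3 mouse fibroblasts as host cells; luminescent beta-galactosidase reporter signal from transgenic T. cruzi replicating inside host cells; inhibitors lower the luminescence signal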
[11] = microbe, parasite or virus in culture; format: functional; conditions: Mycobacterium tuberculosis
[12] = NIH3T3 cell viability loss – ATP luminescence, mouse fibroblasts, counter-screen, dose response (AID 2010); format: functional, cell-based;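 also: cells exposed to compound for about 90 hours before reading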
[13] = cells
[14] = cells; format: functional
[15] = target: Cytochrome P450 2D6 (Homo sapiens, UniProt P10635); assay: qHTS Assay for Inhibitors and Substrates of Cytochrome P450 2D6. [Related pubchem assays: 410 ]; format: ADME; conditions: read-out: Potency
Cytochrome P450 2D6, sequence (P10635 whole entry): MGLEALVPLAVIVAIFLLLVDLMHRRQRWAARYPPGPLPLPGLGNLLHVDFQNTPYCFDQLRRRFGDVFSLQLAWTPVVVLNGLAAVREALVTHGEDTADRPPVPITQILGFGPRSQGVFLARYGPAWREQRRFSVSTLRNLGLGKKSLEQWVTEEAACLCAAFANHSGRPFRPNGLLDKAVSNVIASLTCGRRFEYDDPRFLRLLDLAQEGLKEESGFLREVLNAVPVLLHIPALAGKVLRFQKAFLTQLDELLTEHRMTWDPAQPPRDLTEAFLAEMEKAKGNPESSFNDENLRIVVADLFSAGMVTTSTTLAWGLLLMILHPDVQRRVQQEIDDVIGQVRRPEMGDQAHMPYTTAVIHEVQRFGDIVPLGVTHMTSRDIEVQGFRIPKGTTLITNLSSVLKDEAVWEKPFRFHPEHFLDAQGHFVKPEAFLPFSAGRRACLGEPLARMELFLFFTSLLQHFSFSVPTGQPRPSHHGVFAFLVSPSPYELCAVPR

[16] = target: Cytochrome P450 3A4 (Homo sapiens, UniProt P08684); conditions: Potency;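 also: confirmatory qHTS run detecting inhibitors and substrates of CYP3A4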
Cytochrome P450 3A4, sequence (P08684 whole entry): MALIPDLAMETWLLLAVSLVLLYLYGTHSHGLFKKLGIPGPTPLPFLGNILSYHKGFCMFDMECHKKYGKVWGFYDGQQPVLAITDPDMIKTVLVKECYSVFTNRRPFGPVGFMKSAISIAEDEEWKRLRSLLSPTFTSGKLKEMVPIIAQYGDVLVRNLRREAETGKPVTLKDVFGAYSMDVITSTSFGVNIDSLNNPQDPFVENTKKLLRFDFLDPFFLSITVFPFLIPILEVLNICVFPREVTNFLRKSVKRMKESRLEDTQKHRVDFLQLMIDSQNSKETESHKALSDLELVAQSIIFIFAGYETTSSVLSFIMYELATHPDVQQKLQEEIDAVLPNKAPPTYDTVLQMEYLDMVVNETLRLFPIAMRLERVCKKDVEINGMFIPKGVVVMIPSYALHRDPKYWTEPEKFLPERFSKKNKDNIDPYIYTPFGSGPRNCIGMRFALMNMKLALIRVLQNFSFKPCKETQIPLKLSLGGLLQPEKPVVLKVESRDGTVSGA

[17] = target: Prothrombin (Homo sapiens, UniProt P00734); assay: Thrombin 1536 HTS Dose Response Confirmation. [Related pubchem assays: 1046 (Thrombin 1536 HTS; hits were confirmed in this assay)]; format: functional
[18] = target: T7, Carboxy-terminal domain RNA polymerase II polypeptide A small phosphatase 1 (Homo sapiens, UniProt Q9GZU7); assay: CTDSP1 inhibitors, concentration-response, biochemical, absorbance readout, ultra-high-throughput screen actives (AID 540297); format: functional
T7 sequence (Q9GZU7 whole entry): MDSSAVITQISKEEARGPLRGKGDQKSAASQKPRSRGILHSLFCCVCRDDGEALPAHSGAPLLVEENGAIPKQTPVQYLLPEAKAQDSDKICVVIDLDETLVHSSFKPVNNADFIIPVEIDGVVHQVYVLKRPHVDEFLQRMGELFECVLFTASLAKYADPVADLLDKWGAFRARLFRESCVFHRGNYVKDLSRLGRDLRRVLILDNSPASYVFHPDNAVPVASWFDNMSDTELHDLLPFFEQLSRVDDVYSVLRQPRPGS

[19] = target: T6, Estrogen receptor beta; assay: blockers of SRC-3 recruitment to ERβ – biochemical, ELISA, streptavidin-HRP readout, orthogonal assay, confirmation (AID 1060)
[20] = target: Induced myeloid leukemia cell differentiation protein Mcl-1 (Homo sapiens, UniProt Q07820); format: functional
Induced myeloid leukemia cell differentiation protein Mcl-1, sequence (Q07820 whole entry): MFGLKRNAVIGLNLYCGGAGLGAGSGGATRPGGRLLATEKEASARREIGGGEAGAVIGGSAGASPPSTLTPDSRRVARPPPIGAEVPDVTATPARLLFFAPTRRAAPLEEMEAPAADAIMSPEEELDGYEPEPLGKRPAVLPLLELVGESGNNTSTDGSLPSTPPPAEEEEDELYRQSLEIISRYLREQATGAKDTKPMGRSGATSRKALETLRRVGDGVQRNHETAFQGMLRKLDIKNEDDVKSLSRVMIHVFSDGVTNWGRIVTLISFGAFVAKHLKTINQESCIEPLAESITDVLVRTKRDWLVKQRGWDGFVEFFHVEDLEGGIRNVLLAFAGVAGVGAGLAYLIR

CCOC(=O)c1cc2ccccc2n1CCN(CC)CC
EC50 [1]: 6.45 µM (active) | IC50 [2]: > 50 µM (not active)

CC1(C)Cc2c(sc(NC(=O)C3CC(Cl)=CCC3C(=O)O)c2C#N)CO1 (stereo not given)
IC50 [3]: > 59.6 µM (not active) | IC50 [4]: 1.4 µM (active) | IC50 [5]: > 73.5 µM (not active)

COc1ccccc1/C=C/C(=O)Nc1cccc(C(C)=O)c1
EC50 [6]: > 50 µM (active)

Cc1cc(C)n2cc(-c3ccc(Cl)cc3)c(C(=O)O)c2n1
EC50 [7]: 0.994 µM (active) | CC50 [8]: 38.9 µM (active)

Cc1ccc(OCC(O)Cn2c(N)nc3c2c(=O)n(C)c(=O)n3C)cc1 (stereo not given)
EC50 [6]: > 50 µM (active)

O=C(Nc1ccc(Cc2ccncc2)cc1)C1CCC(N2C(=O)C3CC=CCC3C2=O)CC1 (stereo not given)
IC50 [9]: > 50 µM (not active) | IC50 [2]: > 50 µM (not active)

Nc1ncncc1-c1ccc(Cl)cc1
EC50 [6]: > 50 µM (active)

O=C(c1cc([N+](=O)[O-])cc([N+](=O)[O-])c1)N(Cc1nnc(-c2ccccc2Cl)o1)C1CC1
EC50 [10]: < 0.1 µM (active) | CC50 [11]: > 40 µM (active) | EC50 [12]: > 60 µM (not active) | EC50 [13]: 0.068 µM (active) | IC50 [14]: 1.75 µM (active)

CCCCc1nc2c(c3c1CC(C)OC3)CN(CCOc1ccccc1)CC2 (stereo not given)
AC50 [15]: 3.16 µM (inconclusive) | AC50 [16]: 3.16 µM (inconclusive)

C=CCn1c(N)cc(=O)nc1SCC(=O)Nc1ccc2ccccc2c1
IC50 [3]: > 59.6 µM (not active) | IC50 [4]: 5.68 µM (active) | IC50 [5]: > 73.5 µM (not active)

CN(C)c1ccc(CNCCC2CCOC(C)(C)C2)cc1 (stereo not given)
EC50 [10]: < 0.1 µM (active) | EC50 [12]: > 30 µM (not active) | EC50 [13]: 0.036 µM (active)

O=C(Nc1cccc(-c2cn3cccnc3n2)c1)c1ccc2c(c1)OCO2
IC50 [2]: 6.67 µM (active)

Nc1c(C(=O)c2ccc(Br)cc2)oc2ccccc12
EC50 [7]: 3.3 µM (active)

CCN(/N=C/c1ccc(Cl)cc1)c1cc(=O)n(C)c(=O)[nH]1
EC50 [7]: 1.12 µM (active)

Cc1ccc(/C=c2\sc3nc(-c4ccccc4Br)nn3c2=O)o1
IC50 [9]: > 50 µM (not active) | IC50 [17]: > 50 µM (not active) | IC50 [18]: 5.95 µM (active) | IC50 [19]: 0.0611 µM (not active) | IC50 [4]: 95.5 µM (active) | IC50 [20]: 3.18 µM (active)

CC1=NCCc2c1[nH]c1cc(O)ccc21 [HARMALOL]
AC50 [15]: 31.6 µM (inconclusive)
